Earlier results as cited in paper PMC5742115, “Pharmacophore Modeling and in Silico/in Vitro Screening for Human Cytochrome P450 11B1 and Cytochrome P450 11B2 Inhibitors” (Frontiers in Chemistry, 2017).
Read-outs that look alike come from different tables or passages of the source.

Tests used:
CYP11B1 = details: reported activity, supplementary Table 1, read-out: CYP11B1 IC50, cited from earlier work
CYP11B2 = details: reported activity, supplementary Table 1, read-out: CYP11B2 IC50, cited from earlier work

SMILES	IC50 (CYP11B1; ref Heim et al., 2008)	IC50 (CYP11B2; ref Heim et al., 2008)	IC50 (CYP11B1; ref Lucas et al., 2008b)	IC50 (CYP11B2; ref Lucas et al., 2008b)	further results
Fc1ccc2c(c1)CC/C2=C/c1cccnc1 [CHEMBL383806]					IC50 (CYP11B1; ref Ulmschneider et al., 2005a): 125 nM; IC50 (CYP11B2; ref Ulmschneider et al., 2005a): 11 nM
Clc1ccc2c(c1)CC/C2=C\c1cccnc1 [CHEMBL383807]					IC50 (CYP11B1; ref Ulmschneider et al., 2005a): 1470 nM; IC50 (CYP11B2; ref Ulmschneider et al., 2005a): 26 nM
c1ccc(-c2csc(Cn3ccnc3)c2)cc1 [CHEMBL403598]					IC50 (CYP11B1; ref Hille et al., 2011b): 19 nM; IC50 (CYP11B2; ref Hille et al., 2011b): 277 nM
Fc1ccc2c(c1)CC/C2=C\c1ccncc1 [CHEMBL424960]					IC50 (CYP11B1; ref Ulmschneider et al., 2005a): 1100 nM; IC50 (CYP11B2; ref Ulmschneider et al., 2005a): 15 nM
CCOc1ccc2c(c1)CC/C2=C\c1cccnc1 [CHEMBL425323]					IC50 (CYP11B1; ref Ulmschneider et al., 2005a): 2370 nM; IC50 (CYP11B2; ref Ulmschneider et al., 2005a): 79 nM
COC(=O)c1ccc2cc(-c3cccnc3)ccc2c1 [CHEMBL438802]					IC50 (CYP11B1; ref Voets et al., 2005): 10500 nM; IC50 (CYP11B2; ref Voets et al., 2005): 72 nM
CCOc1cncc(-c2ccc3cc(OC)ccc3c2)c1 [CHEMBL445259]	373 nM	5.1 nM			
CN1C(=O)CCc2cc(-c3cccnc3)ccc21 [CHEMBL446083]			742 nM	2.6 nM	
COc1cncc(-c2ccc3cc(OC)ccc3c2)c1 [CHEMBL447591]	238 nM	4.2 nM			
COc1ccc2cc(-c3cncc(CO)c3)ccc2c1 [CHEMBL448064]	614 nM	9.1 nM			
COc1ccc2cc(-c3cnccc3CO)ccc2c1 [CHEMBL449894]	1760 nM	22 nM			
CN1C(=O)CCc2cc(-c3cncc4ccccc34)ccc21 [CHEMBL451505]			6.9 nM	0.1 nM	
COc1ccc2cc(-c3cnccc3N)ccc2c1 [CHEMBL453169]	1520 nM	13 nM			
O=C1CCc2cc(-c3cncc4ccccc34)ccc2N1 [CHEMBL456390]			33 nM	0.2 nM	
CCN1C(=O)CCc2cc(-c3cccnc3)ccc21 [CHEMBL457425]			5180 nM	22 nM	
O=C1CCc2cc(-c3cccnc3)cc(Cl)c2N1 [CHEMBL457640]			1670 nM	3.8 nM	

SMILES	IC50 (CYP11B1; ref Heim et al., 2008)	IC50 (CYP11B2; ref Heim et al., 2008)	IC50 (CYP11B1; ref Lucas et al., 2008b)	IC50 (CYP11B2; ref Lucas et al., 2008b)	further results
COc1cncc(-c2ccc3c(c2)CCC(=O)N3)c1 [CHEMBL457646]			339 nM	2.7 nM	
COc1cncc(-c2ccc3c(c2)CCC(=O)N3C)c1 [CHEMBL457856]			87 nM	0.2 nM	
COC1CCc2cc(-c3cccnc3)ccc2C1 (centres unmarked) [CHEMBL460178]			1140 nM	3.3 nM	
c1cncc(-c2ccc3c(c2)CCCC3)c1 [CHEMBL461457]			1980 nM	29 nM	
OC1CCc2cc(-c3cccnc3)ccc2C1 (centres unmarked) [CHEMBL461458]			4920 nM	44 nM	
N#CC1=Cc2ccc(-c3cccnc3)cc2CC1 [CHEMBL461884]			290 nM	1.6 nM	
O=C1CCc2cc(-c3cccnc3)ccc2C1 [CHEMBL462093]			3960 nM	7.8 nM	
c1ccc(Cn2cncc2-c2ccccc2)cc1 [CHEMBL463582]					IC50 (CYP11B1; ref Roumen et al., 2010): 4.8 nM; IC50 (CYP11B2; ref Roumen et al., 2010): 11 nM
COc1cncc(-c2ccc3c(c2)CCC(=O)C3)c1 [CHEMBL499007]			191 nM	1.8 nM	
COc1ccc2c(c1)CC(C)C(c1cncc3ccccc13)=C2 (centres unmarked) [CHEMBL499044]	64 nM	0.5 nM			
COc1ccc2cc(-c3cccnc3)c(C)cc2c1 [CHEMBL499871]	1050 nM	7 nM			
COc1cncc(C2=Cc3ccc(OC)cc3CC2C)c1 (centres unmarked) [CHEMBL500145]	100 nM	1.2 nM			
COC(=O)c1cncc(-c2ccc3cc(OC)ccc3c2)c1 [CHEMBL500146]	15 nM	0.8 nM			
COc1ccc2cc(-c3cncc(C(C)OC)c3)ccc2c1 (centres unmarked) [CHEMBL500392]	10 nM	0.2 nM			
COc1ccc2cc(-c3cncc(-c4ccccc4)c3)ccc2c1 [CHEMBL500393]	151 nM	4.8 nM			
